From patent publication US20070225213A1, “Nucleic acid carriers for delivery of therapeutic agents” (priority 2006, published 2007)

Legend:
MCF7 cells = assay: Drug loading vs toxicity at fixed [drug], MTT viability assay (Example 4); format: cell-based, human; conditions: Drug only, without carrier; 0.058 mM MTN; 72 hours
Protocol: FIG. 1. […] NAC-MTN or NAC-DOX were prepared at different weight:weight % of drug:nucleic acid and incubated in cells. For each sample and corresponding % loading, the total drug was held constant at 0.058 mM MTN or 0.1 mM DOX. After incubation in cells, cell viability was assayed via mitochondrial dehydrogenase activity against 3-[4,5-dimethylthiazol-2-yl]-2,5-diphenyl tetrazolium bromide (MTT) and reported as % toxicity relative to untreated cells.
Mitoxantrone (MTN, Sigma Aldrich) and Doxorubicin HCl (DOX) were diluted in HBSS to 1 mg/ml final. DNA, from degraded herring sperm DNA <40 bp (HSDNA, Sigma Aldrich), was prepared in water at 10 mg/ml. The drug was diluted in water or HBSS first, followed by addition of the DNA, in order to prevent precipitation. Precipitation of drug was especially a concern at 40% loading of MTN, which is the loading limit for HSDNA (degraded) and so the DNA is added slowly to the diluted MTN (the reverse addition leads to precipitation). All NAC-MTN formulation stocks were prepared at 0.15 mg/ml final MTN, and different concentration of DNA in order to give 15, 25, and 35.7% final drug loading w/w % of MTN/DNA in 0.5 ml final volume. All NAC-DOX formulations were prepared at 0.3 mg/ml final DOX, and either 5, 10, or 15% loaded drug weight/weight % of DOX/DNA in 0.5 ml final volume. […]

BHK21 = assay: Cell uptake by MTN fluorescence EX620/EM680 (Examples 10 and 13, EX051605); format: cell-based, hamster; conditions: 10% w/w loading in DNA
Protocol: Materials: HSGDNA, MTN, ODNAS1116 (phosphorothioated, single stranded DNA, and Beta-cyclodextrin polymer (BCD-SBE, KKBIOMED Inc.) were previously prepared in water at 10 mg/ml, 1 mg/ml, 0.95 mg/ml, and 10 mg/ml respectively.
Procedure: For NAC-MTN, combined 37 ul HSGDNA (herring genomic DNA, Promega Inc.), 1426 ul HBSS( Hank's buffered saline, Sigma-Aldrich), with 37 ul of MTN, followed by 1500 ul 2× DMEM media to give 3 ml final and 24 uM (24 micro-molar) MTN and 10% w/w drug loading of MTN. For NAC-MTN (AR1505) combined 62 ul of HSDNA (deg. herring sperm DNA, Sigma) with 2377 ul HBSS, 61.7 ul MTN, 2500 ul 2× media to give 5 ml final and 24 uM MTN and 10% w/w drug loading of MTN to HSDNA. […]
Plate#1 Media was aspirated and cells treated with 100 ul of either NAC-MTN, CD-MTN, or MTN at 24 uM MTN final or 12.3 ug/ml MTN in all samples. Samples containing MTN were incubated 4 hours, removed, and fluorescence taken at EX620/EM680. […]
Samples were incubated 4 hours, removed, and MTN fluorescence taken at EX620/EM680. […] Average MTN fluorescence was averaged from 6 wells. For each cell type, MTN fluorescence was highest in MTN treated cells, followed by CD-MTN, and lowest in NAC-MTN. […]
PLATE#2: Dispensed 50 ul from source plate into plate #2 to give 150 ul final vol 4.1 ug/ml, 8 uMfinal per well, pre-read fluorescence w samples (bkgd) incubated 5 hr, removed, replaced w/ media, read fluor. […]

## O=C1c2c(O)ccc(O)c2C(=O)c2c(NCCNCCO)ccc(NCCNCCO)c21 [MTN, mitoxantrone]
MCF7 cells
  % Tox: 79%
BHK21; Plate#1, 24 uM MTN, 4 hours
  % reduction in fluorescence relative to MTN alone (MTN = 0%): 0%
BHK21; Plate#2, 8 uM MTN
  % reduction in fluorescence relative to MTN alone (MTN = 0%): 0%
